Molecules are shown by their SMILES. pIC50: −log10 of the molar value. ≈ marks a conversion by molar mass, not a printed value.

Here are results for 15 molecules from publication PMC6143291 (The Journal of organic chemistry, 2017).

The test system of one assay is Mtb H37Rv. Briefly: Microplate Alamar blue assay. Type of assay: cell-based, Mycobacterium tuberculosis. The conditions noted are these: MABA, 2-fold serial dilution, read on day seven. Background: Alamar Blue is a resazurin reagent that responds to reducing activity.
For `O=c1c2ccccc2[se]n1C12CC3CC(CC(C3)C1)C2` [1l, 2-((3R,5S)-Adamantan-1-yl)benzo[d][1,2]-selenazol-3(2H)-one], the minimal inhibitory concentration (MIC) (commonly the lowest concentration found to suppress growth) came to 50 µg/mL (≈ 150 µM).

Another assay deals with Mtb Ag85C (Mycobacterium tuberculosis, UniProt P9WQN9). Briefly: Fluorometric resorufin butyrate assay, apparent IC50 after 15 min incubation. The format is biochemical.
Mtb Ag85C, sequence (P9WQN9 46-340 limits assumed): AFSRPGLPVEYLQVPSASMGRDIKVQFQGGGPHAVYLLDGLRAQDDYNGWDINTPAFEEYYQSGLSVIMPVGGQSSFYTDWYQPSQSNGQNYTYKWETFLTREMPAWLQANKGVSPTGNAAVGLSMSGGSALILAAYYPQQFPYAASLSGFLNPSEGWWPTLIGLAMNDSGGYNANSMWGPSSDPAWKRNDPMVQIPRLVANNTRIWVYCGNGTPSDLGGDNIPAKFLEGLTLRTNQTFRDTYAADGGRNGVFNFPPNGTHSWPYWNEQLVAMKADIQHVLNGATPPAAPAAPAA
Settings: not given
As for `O=c1c2ccccc2[se]n1Cc1ccccc1` [1e, 2-Benzylbenzo[d][1,2]selenazol-3(2H)-one], the pIC50 (in general, the IC50 on a negative log10 scale, so that one unit is a factor of ten) is 5.19.

As to `O=c1c2ccccc2[se]n1CC1CCCCC1` [1g, 2-(Cyclohexylmethyl)benzo[d][1,2]selenazol-3(2H)-one], the negative-log IC50 (pIC50) was 5.28.

As to `O=c1c2ccccc2[se]n1C1CCCC1` [1m, 2-Cyclopentylbenzo[d][1,2]selenazol-3(2H)-one], the pIC50 is 5.39.

Turning to `O=c1c2ccccc2[se]n1C1CCCCC1` [1n, 2-Cyclohexylbenzo[d][1,2]selenazol-3(2H)-one], the negative logarithm of the IC50 (pIC50) is 5.43.

Turning to `O=c1c2ccccc2[se]n1-c1ccccc1F` [1i, 2-(2-Fluorophenyl)benzo[d][1,2]selenazol-3(2H)-one], the pIC50 was 6.00.

For the molecule `[N-]=[N+]=Nc1ccc(-n2[se]c3ccccc3c2=O)cc1` [1j, 2-(4-Azidophenyl)benzo[d][1,2]selenazol-3(2H)-one], the negative-log IC50 (pIC50) is 5.96.

With `COc1ccccc1Cn1[se]c2ccccc2c1=O` [1c, 2-(2-Methoxybenzyl)benzo[d][1,2]selenazol-3(2H)-one], the negative-log IC50 (pIC50) was 4.54.

As for `O=c1c2ccccc2[se]n1-c1ccc(F)cc1` [1h, 2-(4-Fluorophenyl)benzo[d][1,2]selenazol-3(2H)-one], the pIC50 was 6.14.

With `O=C(CCCCC1SC[C@@H]2NC(=O)N[C@H]12)NCCOCCOCCOCCNC(=O)CCC(=O)N1Cc2ccccc2-c2nnn(-c3ccc(-n4[se]c5ccccc5c4=O)cc3)c2-c2ccccc21` (stereo partly drawn) [compound 10, N-(13,16-Dioxo-16-(3-(4-(3-oxobenzo[d][1,2]-selenazol-2(3H)-yl)phenyl)-3,9-dihydro-8H-dibenzo[b,f][1,2,3]-triazolo[4,5-d]azocin-8-yl)-3,6,9-trioxa-12-azahexadecyl)-5-((3aS,6aR)-2-oxohexahydro-1H-thieno[3,4-d]imidazol-4-yl)-pentanamide], the pIC50 is 5.69.

Regarding `COc1ccc(-n2[se]c3ccccc3c2=O)cc1` [1d, 2-(4-Methoxyphenyl)benzo[d][1,2]selenazol-3(2H)-one], the negative logarithm of the IC50 (pIC50) is 5.92.

Take `O=c1c2ccccc2[se]n1-c1ccccc1` [1a, 2-Phenylbenzo[d][1,2]selenazol-3(2H)-one, reference compound]: the pIC50 was 5.29.

Regarding `[N-]=[N+]=Nc1ccc(NC(=O)c2ccccc2[Se]C#Cc2ccccc2)cc1` [compound 8, N-(4-Azidophenyl)-2-((phenylethynyl)selanyl)-benzamide], the pIC50 is less than 4.00.

Consider `COc1ccc(Cn2[se]c3ccccc3c2=O)cc1` [1b, 2-(4-Methoxybenzyl)benzo[d][1,2]selenazol-3(2H)-one], for which the negative logarithm of the IC50 (pIC50) is 6.27.

Take `CC(C)(C)n1[se]c2ccccc2c1=O` [1k, 2-(tert-Butyl)benzo[d][1,2]selenazol-3(2H)-one]: the pIC50 was 5.82.
